Reference: ChEMBL document CHEMBL5726007, “Therapeutic compounds and uses thereof” (2018)
pIC50: −log10 of the molar value.

Target: T1, Bromodomain-containing protein 9 (Homo sapiens, UniProt Q9H8M2)
T1 sequence (Q9H8M2 whole entry): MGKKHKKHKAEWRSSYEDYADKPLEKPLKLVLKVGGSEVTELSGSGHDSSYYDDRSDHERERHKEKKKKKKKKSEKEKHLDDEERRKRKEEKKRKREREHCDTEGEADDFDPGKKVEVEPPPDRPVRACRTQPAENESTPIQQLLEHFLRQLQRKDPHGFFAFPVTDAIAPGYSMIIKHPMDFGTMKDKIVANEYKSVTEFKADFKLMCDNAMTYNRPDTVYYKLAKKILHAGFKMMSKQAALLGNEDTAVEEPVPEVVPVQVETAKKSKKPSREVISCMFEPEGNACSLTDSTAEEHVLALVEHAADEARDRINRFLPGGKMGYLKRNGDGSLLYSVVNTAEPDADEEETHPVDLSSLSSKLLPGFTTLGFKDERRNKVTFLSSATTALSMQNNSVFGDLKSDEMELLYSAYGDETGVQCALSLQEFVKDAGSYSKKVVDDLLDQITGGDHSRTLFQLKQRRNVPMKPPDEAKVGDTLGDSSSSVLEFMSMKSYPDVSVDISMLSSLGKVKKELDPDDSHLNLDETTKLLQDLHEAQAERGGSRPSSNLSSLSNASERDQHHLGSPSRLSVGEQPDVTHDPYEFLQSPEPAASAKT
Experiment: After 20 minutes incubation at room temperature AlphaLisa Streptavidin Acceptor Beads (Perkin-AL125C) and AlphaLisa Nickel donor beads (Perkin AS 10 ID) were added to a final concentration of 15 ug/mL each.

CC(C)n1cc(-c2ccc(C(C)(C)O)cc2)c2cc[nH]c2c1=O
pIC50: 5.39
